From US20090220996A1, “In vitro Assay Methods for Classifying Embryotoxicity of Compounds” (RELIANCE LIFE SCIENCES PVT LTD., priority 2007, published 2009)

What was measured:
[1] = test system: lineage marker gene expression in hEBs; experiment: Gene expression profile of day 15 hEBs (RT-PCR, densitometry) and ID50; type: cell-based, human; details: for lineage markers down-regulated / affected: summary statement, hEBs
Method: On the 15th day, differentiated cells that are adherent are washed with 2 ml DPBS and trypsinized (0.05%) from 24 well plates and collected in a tube. The tube is centrifuged at 2000 rpm for 10 minutes to pellet the cells. The total RNA is isolated using TRIzol (Invitrogen Corporation) following the manufacturer's instructions. The RNA is quantified by absorbance at 260 nm, and 1-2 μg of RNA from control and drug treated cells are converted to cDNA using Superscript cDNA synthesis kit (Invitrogen Corporation) following the manufacturer's instructions. cDNA was used to study the expression of genes specific for ectoderm, mesoderm, and endoderm, by an appropriate method, such as RT-PCR, qPCR, or microarray. Markers indicative of each lineage are used.
The changes in gene expression in the presence or absence of the drug are compared. Changes in a mesodermal marker representative of cardiogenesis is used to calculate ID50 values of the tested compounds, and densitometry of the band intensities from RT-PCR, or CT values from qPCR, are used to calculate the ID50 values.
Various compounds were tested for their effect on the gene expression profiles of homeobox transcription factor Nanog (“NANOG”; GenBank Accession Number AB093576), neurofilament, heavy polypeptide 200 KDa (“NEFH” or “NFH”; GenBank Accession Number X15307), keratin-15 (“KRT15”; GenBank Accession Number X07696), actin, alpha, cardiac muscle (“ACTC1”; GenBank Accession Number NM_005159), msh homeobox 1 (“MSX1”; GenBank Accession Number BC067353), CD34 molecule (“CD34”; GenBank Accession Number BC039146), alpha fetoprotein (“AFP”; GenBank Accession Number J00077), serum albumin (“ALB”; GenBank Accession Number M12523), bone morphogenetic protein 4 (“BMP4”; GenBank Accession Number NM_130850), and bone morphogenetic protein 5 (“BMP5”; GenBank Accession Number M60314) in hEBs. Glyceraldehyde-3-phosphate dehydrogenase (“GAPDH”; GenBank Accession Number J04038) was used as a control.
RNA was extracted from different drug treated groups using the trizol method. One microgram of RNA was converted to cDNA using superscript reverse transcriptase. PCR was performed with the initial denaturation cycle at 94° C. for 5 min, followed by 35 cycles of 94° C. for 30 seconds, annealing temperature varying (Table 1) for 30 seconds, 72° C. for 1 minute, followed final extension at 72° C. for 5 min. Electrophoresis was performed on 1.5% agarose gels. Paired comparisons were conducted using a paired t test, and all data are presented as mean values±S.E. Differences were considered significant at a 0.05 level of confidence.
For calculating IC50-hES and ID50-hES cells, one petri dish was used per concentration of the test chemical, as well as for the untreated control (assay medium) and the solvent control. The lid was turned carefully to its regular position and put on top of a petri dish filled with 5 ml PBS. […] The changes in gene expression in the presence or absence of the drug were compared. Changes in mesodermal marker representative of cardiogenesis was used to calculate ID50 values of the tested compounds, and the densitometry of the band intensities performed in case of RT-PCR, or CT values in case of qPCR, were used to calculate the ID50 values.

[2] = test system: hES, hEBs and HFF; experiment: CyQUANT/survival cytotoxicity, cell type not given; type: cell-based, human; details: cell type not stated; for cell survival: CyQUANT
Method: Cytotoxicity analysis of three cell types (hES, hEBs and HFF) was evaluated using the CyQUANT assay following compound treatment. All data were the mean of three independent experiments for each cell type. Data is represented as the mean±SE.

[3] = 0.1 μg/ml, day 15 hEBs, FIG. 5B

## O=c1[nH]cc(F)c(=O)[nH]1 [5-Fluorouracil, 5-fluorouracil]
[1]; 0.001 μg/ml, day 15 hEBs, FIG. 5B
  down-regulation of ALB gene expression: 40%
[1]; 0.01 μg/ml, day 15 hEBs, FIG. 5B
  decrease in NFH levels: 60%
[1]; [3]
  down-regulation of AFP gene expression: 80%
  down-regulation of MSX1 expression: 15%
  down-regulation of NANOG expression: 25%
[1]; 0.0001-0.1 μg/ml, day 15 hEBs, FIG. 5B
  gene expression levels of ACTC1, KRT, CD34, BMP4, and BMP5: no change
[1]
  lineage markers down-regulated / affected: all the three lineage markers are effected

## Cn1c(=O)c2c(ncn2C)n(C)c1=O [Caffeine, caffeine]
[2]; 50 μg/ml, FIG. 3B
  cell survival percentage compared to controls: significant decrease
[2]; 500 μg/ml, FIG. 4C
  cell survival: 20%
[1]; 50 μg/ml, day 15 hEBs, FIG. 6B
  decrease of AFP expression: 80%
  decrease of NFH expression: 80%
  decrease of keratin expression: 85%
[1]; 500 μg/ml, day 15 hEBs, FIG. 6B
  decrease of ACTC1 expression: 40%
[1]; day 15 hEBs, FIG. 6B
  expression levels of NANOG, CD34, BMP4, MSX1, and BMP5: no significant change

## COc1ccc2c(c1)c(CC(=O)O)c(C)n2C(=O)c1ccc(Cl)cc1 [Indomethacin, indomethacin]
[2]; 100 μg/ml, FIG. 4D
  cell survival: 20-30%

## CC1(C)S[C@@H]2[C@H](NC(=O)Cc3ccccc3)C(=O)N2[C@H]1C(=O)O [Penicillin G, penicillin G]
[1]; 10 μg/ml, day 15 hEBs, FIG. 7
  ALB levels: decreased
[1]; 100 μg/ml, day 15 hEBs, FIG. 7
  AFP levels decreased to: 40%
[1]; day 15 hEBs, FIG. 7A
  markers of ectoderm, mesoderm, and endoderm other than AFP and ALB: no significant change
[1]; highest dose (5000 μg/ml), day 15 hEBs, FIG. 7B
  expression of AFP and ALB: complete loss of expression
[1]
  lineage markers down-regulated / affected: only endodermal markers are down-regulated
